One block for each compound: values may come before it.
Tests used:
Assay type in all cases: physicochemical
[1] = Example 1: stability of bilberry extract anthocyanosides, 4 hours at 37° C., pH 7.0, with/without DHLA or GSH (HPLC); settings: for % left, GSH (4 hours) / Peak Area, GSH (4 hours): 20 mg reduced L-glutathione; for % left, GSH (4 hours) / Peak Area, GSH (4 hours) / % left, DHLA (4 hours) / Peak Area, DHLA (4 hours) / % left, Blank (4 hours) / Peak Area, Blank (4 hours): pH 7.0, 37° C.; for % left, DHLA (4 hours) / Peak Area, DHLA (4 hours): 30 mg dihydrolipoic acid; for Peak Area, Fresh (0 hours): bilberry extract 60 mg/100 ml sodium phosphate buffer pH 7.0, fresh sample; for % left, Blank (4 hours) / Peak Area, Blank (4 hours): unprotected
[2] = Example 3: stability of black currant extract anthocyanosides, 4 hours at 37° C., pH 7.0, with/without DHLA, GSH or L-cysteine (HPLC); settings: for Peak Area, Fresh solution: black currant extract 60 mg/100 ml buffer pH 7.0, fresh sample; for % left, DHLA 20 mg / % left, GSH 20 mg / % left, L-cysteine 20 mg / Peak Area, DHLA 20 mg / Peak Area, GSH 20 mg / Peak Area, L-cysteine 20 mg / % left, Blank / Peak Area, Blank: pH 7.0, 37° C., 4 hours; for % left, Blank / Peak Area, Blank: unprotected
Method: (§1) Sample a) 60 mg black currant extract [35% anthocyanosides] (0.037 mmol anthocyanosides expressed as cyanidin-3-O-rutinoside) were added to a 100 ml flask and filled to volume with sodium phosphate buffer (5% [w/w], pH=7.0) and stirred until dissolution was complete. A 1 ml sample was taken immediately, acidified with formic acid to pH=1.0 and analyzed by HPLC for the content of anthocyanosides (Fresh Sample). The remaining solution was kept for 4 hours at 37° C. (water bath) with stirring. Thereafter samples (Blank sample), representing unprotected degradation, were taken and acidified.
(§2) Sample b) 20 mg reduced L-glutathione (0.065 mmol) were added to a 100 ml flask with 60 ml sodium phosphate buffer (5% [w/w], pH=7.0) and stirred until dissolution was complete. 60 mg black currant extract [35% anthocyanosides] (0.037 mmol anthocyanosides expressed as cyanidin-3-O-rutinoside) were then added and the flask was filled to volume with sodium phosphate buffer (5% [w/w], pH=7.0) and kept for 4 hours at 37° C. (water bath) with stirring.
as §2, with “Sample c)” for “Sample b)”, “mg dihydrolipoic acid (0.096” for “mg reduced L-glutathione (0.065”, “was completed.” for “was complete.”, “were” for “were then”, “added to” for “added and”, “the flask,” for “the flask was”
as §2, with “Sample d)” for “Sample b)”, “mg L-cysteine acid (0.165” for “mg reduced L-glutathione (0.065”, “were” for “were then”, “added to” for “added and”, “the flask,” for “the flask was”
After 4 hours samples were taken, acidified immediately with formic acid to pH=1.0 and analyzed by HPLC for the content of anthocyanosides. Degradation is expressed as decrease in peak area of individual peaks (calculated as % left after 4 hours).
(§3) Samples were prepared as outlined below in HPLC Analytical Method. Test stability samples were immediately acidified (to block degradation) and injected undiluted following the detailed description provided below.
HPLC Analytical Method (Materials, Instruments and Methods): […]

[3] = Example 5: degradation over time of black currant anthocyanosides at 37° C., pH 7.0, with/without GSH (HPLC); settings: pH 7.0, 37° C.; for %-residual anthocyanosides (% left): 4 hours
Method: as §1, with “flask,” for “flask and”, “anthocyanosides.” for “anthocyanosides (Fresh Sample).”, “kept” for “kept for 4 hours”, “stirring and 1 ml” for “stirring. Thereafter”, “Samples),” for “sample),”, “every 15 minutes. The samples were analyzed for selected anthocyanosides by HPLC.” for “and acidified.”
as §2, with “added,” for “then added and”, “for” for “for 4 hours”, “stirring. Every 15 minutes 1 ml samples were taken and analyzed for selected anthocyanosides by HPLC.” for “stirring.”
as §3

[4] = Example 9: stability of bilberry extract anthocyanosides, 4 hours at 37° C., pH 7.0, with/without L-cysteine; settings: for Peak Area, Fresh solution: bilberry extract 60 mg in buffer pH 7.0, fresh sample; for % left, L-cysteine 20 mg / Peak Area, L-cysteine 20 mg / % left, Blank / Peak Area, Blank: pH 7.0, 37° C., 4 hours; for % left, Blank / Peak Area, Blank: unprotected
Method: Sample a) 60 mg bilberry extract [37% anthocyanosides] (0.048 mmol anthocyanosides expressed as cyanidin-3-O-glucoside) were added to a 100 ml flask with 60 ml sodium phosphate buffer (5% [w/w], pH=7.0), and stirred until dissolution was complete. A 1 ml sample was taken immediately and acidified with formic acid to pH=1.0 and analyzed by HPLC for the content of anthocyanosides (Fresh Sample). The remaining solution was kept for 4 hours at 37° C. (water bath) with stirring. Thereafter another sample (Blank sample), representing unprotected degradation, was taken and acidified.
Sample b) 20 mg L-cysteine […] were added to a 100 ml flask with 60 ml sodium phosphate buffer (5% [w/w], pH=7.0) and stirred until dissolution was complete. 60 mg bilberry extract [37% anthocyanosides] (0.048 mmol expressed as cyanidin-3-O-glucoside) were then added to the flask and stir to fully dissolve, then kept for 4 hours at 37° C. (water bath) with stirring.
After 4 hours, samples were taken and acidified immediately with formic acid to pH=1.0 and analyzed by HPLC for the content of anthocyanosides. Degradation is expressed as decrease in peak area of individual peaks (calculated as % left after 4 hours).
Samples were prepared as outlined above in the HPLC Analytical Method. Test stability samples were immediately acidified (to block degradation) and injected undiluted following the detailed description provided below.

[5] = GSH protected sample (20 mg), 0:00 h
[6] = GSH protected sample (20 mg), 0:15 h
[7] = GSH protected sample (20 mg), 0:45 h
[8] = GSH protected sample (20 mg), 1:00 h
[9] = GSH protected sample (20 mg), 1:15 h
[10] = GSH protected sample (20 mg), 1:45 h
[11] = GSH protected sample (20 mg), 2:00 h
[12] = GSH protected sample (20 mg), 2:15 h
[13] = GSH protected sample (20 mg), 2:45 h
[14] = GSH protected sample (20 mg), 3:00 h
[15] = GSH protected sample (20 mg), 3:15 h
[16] = GSH protected sample (20 mg), 3:45 h
[17] = GSH protected sample (20 mg), 4:00 h
[18] = GSH protected sample (20 mg), 4:15 h

% left, GSH (4 hours) [1]: 80.7%
Peak Area, GSH (4 hours) [1]: 797.5
% left, DHLA (4 hours) [1]: 67.9%
Peak Area, DHLA (4 hours) [1]: 671.1
Peak Area, Fresh (0 hours) [1]: 987.9
% left, Blank (4 hours) [1]: 41.5%
Peak Area, Blank (4 hours) [1]: 410.3
Peak Area, Fresh solution [2]: 491.1
% left, DHLA 20 mg [2]: 51.7%
% left, GSH 20 mg [2]: 64.3%
% left, L-cysteine 20 mg [2]: 38.0%
Peak Area, DHLA 20 mg [2]: 254.1
Peak Area, GSH 20 mg [2]: 315.7
Peak Area, L-cysteine 20 mg [2]: 186.8
% left, Blank [2]: 31.4%
Peak Area, Blank [2]: 154.0
Peak Area ([3]; Blank sample, 0:00 h): 491.1
Peak Area ([3]; Blank sample, 0:15 h): 368.9
Peak Area ([3]; Blank sample, 0:30 h): 361.9
Peak Area ([3]; Blank sample, 0:45 h): 321.0
Peak Area ([3]; Blank sample, 1:00 h): 312.0
Peak Area ([3]; Blank sample, 1:30 h): 293.4
Peak Area ([3]; Blank sample, 1:45 h): 283.8
Peak Area ([3]; Blank sample, 2:00 h): 256.7
Peak Area ([3]; Blank sample, 2:15 h): 250.3
Peak Area ([3]; Blank sample, 2:30 h): 243.9
Peak Area ([3]; Blank sample, 2:45 h): 226.8
Peak Area ([3]; Blank sample, 3:00 h): 213.7
Peak Area ([3]; Blank sample, 3:15 h): 204.9
Peak Area ([3]; Blank sample, 3:30 h): 180.1
Peak Area ([3]; Blank sample, 3:45 h): 181.6
Peak Area ([3]; Blank sample, 4:00 h): 154.0
%-residual anthocyanosides (% left) ([3]; Blank): 31%
Peak Area [3, 5]: 480.6
Peak Area [3, 6]: 426.1
Peak Area [3, 7]: 418.6
Peak Area [3, 8]: 423.8
Peak Area [3, 9]: 415.3
Peak Area [3, 10]: 376.4
Peak Area [3, 11]: 387.6
Peak Area [3, 12]: 356.5
Peak Area [3, 13]: 337.5
Peak Area [3, 14]: 349.5
Peak Area [3, 15]: 325.6
Peak Area [3, 16]: 312.6
Peak Area [3, 17]: 315.7
Peak Area [3, 18]: 300.3
%-residual anthocyanosides (% left) ([3]; GSH-protected): 66%
Peak Area, Fresh solution [4]: 987.9
% left, L-cysteine 20 mg [4]: 80.7%
Peak Area, L-cysteine 20 mg [4]: 797.5
% left, Blank [4]: 41.5%
Peak Area, Blank [4]: 410.3
SMILES: OC[C@H]1O[C@@H](Oc2cc3c(O)cc(O)cc3[o+]c2-c2ccc(O)c(O)c2)[C@H](O)[C@@H](O)[C@@H]1O [Cn-3O-Glc, Cyanidin 3-o-glucoside]

% left, GSH (4 hours) [1]: 48.3%
Peak Area, GSH (4 hours) [1]: 350.8
% left, DHLA (4 hours) [1]: 57.1%
Peak Area, DHLA (4 hours) [1]: 414.8
Peak Area, Fresh (0 hours) [1]: 726.6
% left, Blank (4 hours) [1]: 6.4%
Peak Area, Blank (4 hours) [1]: 46.3
Peak Area, Fresh solution [2]: 1481
% left, DHLA 20 mg [2]: 52.0%
% left, GSH 20 mg [2]: 50.4%
% left, L-cysteine 20 mg [2]: 36.7%
Peak Area, DHLA 20 mg [2]: 770.7
Peak Area, GSH 20 mg [2]: 745.6
Peak Area, L-cysteine 20 mg [2]: 543.0
% left, Blank [2]: 9.5%
Peak Area, Blank [2]: 140.8
Peak Area ([3]; Blank sample, 0:00 h): 1480.7
Peak Area ([3]; Blank sample, 0:15 h): 969.6
Peak Area ([3]; Blank sample, 0:30 h): 907.9
Peak Area ([3]; Blank sample, 0:45 h): 745.2
Peak Area ([3]; Blank sample, 1:00 h): 702.1
Peak Area ([3]; Blank sample, 1:30 h): 605.4
Peak Area ([3]; Blank sample, 1:45 h): 599.9
Peak Area ([3]; Blank sample, 2:00 h): 465.1
Peak Area ([3]; Blank sample, 2:15 h): 449.8
Peak Area ([3]; Blank sample, 2:30 h): 394.0
Peak Area ([3]; Blank sample, 2:45 h): 362.7
Peak Area ([3]; Blank sample, 3:00 h): 304.8
Peak Area ([3]; Blank sample, 3:15 h): 285.1
Peak Area ([3]; Blank sample, 3:30 h): 208.8
Peak Area ([3]; Blank sample, 3:45 h): 214.5
Peak Area ([3]; Blank sample, 4:00 h): 140.8
%-residual anthocyanosides (% left) ([3]; Blank): 10%
Peak Area [3, 5]: 1464.0
Peak Area [3, 6]: 1280.4
Peak Area [3, 7]: 1209.3
Peak Area [3, 8]: 1219.0
Peak Area [3, 9]: 1178.1
Peak Area [3, 10]: 1051.8
Peak Area [3, 11]: 1077.0
Peak Area [3, 12]: 981.9
Peak Area [3, 13]: 876.8
Peak Area [3, 14]: 917.2
Peak Area [3, 15]: 812.5
Peak Area [3, 16]: 742.7
Peak Area [3, 17]: 745.6
Peak Area [3, 18]: 682.0
%-residual anthocyanosides (% left) ([3]; GSH-protected): 51%
Peak Area, Fresh solution [4]: 726.6
% left, L-cysteine 20 mg [4]: 48.3%
Peak Area, L-cysteine 20 mg [4]: 350.8
% left, Blank [4]: 6.4%
Peak Area, Blank [4]: 46.3
SMILES: OC[C@H]1O[C@@H](Oc2cc3c(O)cc(O)cc3[o+]c2-c2cc(O)c(O)c(O)c2)[C@H](O)[C@@H](O)[C@@H]1O [Dp-3O-Glc, Delphinidin 3-o-glucoside]

Source: patent US8623429B2, “Stabilized anthocyanin compositions” (Omnica GmbH, priority 2007, dated 2014)
